Reference: US4965280A, “Antifungal carbinols” (E. I. Du Pont de Nemours and Company, priority 1989, dated 1990)
Values after ≈ are worked out from the molar mass of the structure shown. Read-outs that look alike come from different tables or passages of the source.

Assays:
[1] = test system: WATER PLAINTAIN; experiment: Test C rice paddy; format: in vivo, Alisma trivale; conditions: 504 h, 21 days, read-out: plant response; for pest or weed control at 64 g/ha: 0064 G/HA; for pest or weed control at 125 g/ha: 0125 G/HA; for pest or weed control at 250 g/ha: 0250 G/HA; for pest or weed control at 500 g/ha: 0500 G/HA
In short: (§1)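 In this flooded-paddy assay, rice and weeds grew in saturated silt loam under greenhouse conditions, and the test compound was dosed into the 3 cm standing water shortly after flooding.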

[2] = test system: Venturia inaequalis; experiment: Example A apple scab; format: in vivo; conditions: 100 PPM, read-out: disease control rating, Ex. A
In short: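 Spray application to run-off on apple seedlings; compound at 100 or 20 ppm in water with 250 ppm TREM 014 (polyhydric alcohol esters) and 6% acetone of final volume.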

[3] = test system: Erysiphe graminis f. sp. tritici; experiment: Example D wheat powdery mildew; format: in vivo; conditions: Blumeria graminis, 144 h; 100 PPM; read-out: disease control rating, Ex. D
In short: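 Seedling wheat was treated by spraying to run-off; formulation used acetone as co-solvent (6% final) and TREM 014 surfactant at 250 ppm, with compound at 100 or 20 ppm.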

[4] = test system: Rhizoctonia solani; experiment: Example F rice sheath blight; format: in vivo; conditions: Rhizoctonia solani, 144 h, 100 PPM; read-out: disease control rating, Ex. F
In short: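 Foliar run-off spray, rice seedlings: compound at 100 or 20 ppm in aqueous 250 ppm polyhydric alcohol ester surfactant, acetone 6% v/v final.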

[5] = test system: Sclerotium rolfsii; experiment: Example M southern blight; format: in vivo; conditions: Agroathelia rolfsii, 336 h; 5 kg/ha; read-out: disease control rating, Ex. M
Description: […] Seeds and soil were then inoculated with a mixture of sand, cereal and mycelium of the fungus Sclerotium rolfsii, causal agent of sourthern blight, and incubated in a growth chamber at 30° C. for 14 days. Disease ratings were then made.

[6] = test system: ARROWHEAD; experiment: Test C rice paddy; format: in vivo, Sagittaria spp.; conditions: Sagittaria, 504 h, 21 days, read-out: plant response; for pest or weed control at 64 g/ha: 0064 G/HA; for pest or weed control at 125 g/ha: 0125 G/HA; for pest or weed control at 250 g/ha: 0250 G/HA; for pest or weed control at 500 g/ha: 0500 G/HA
In short: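 Greenhouse paddy pots of saturated silt loam received rice seedlings at the 2.0–2.5 leaf stage, transplanted weed seedlings or sprouted tubers, and barnyardgrass seed. After flooding to 3 cm at 3–4 days, solvent-formulated test chemical went straight into the water within 24 h.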

[7] = test system: RICE INDICA EFF; experiment: Test C rice paddy; format: in vivo; conditions: Oryza sativa, 504 h, 21 days, read-out: plant response; for pest or weed control at 64 g/ha: 0064 G/HA; for pest or weed control at 125 g/ha: 0125 G/HA; for pest or weed control at 250 g/ha: 0250 G/HA; for pest or weed control at 500 g/ha: 0500 G/HA
In short: as §1

[8] = test system: YELLOW NUTSEDGE; experiment: Test C rice paddy; format: in vivo, Cyperus esculentus; conditions: 21 days
Text: Sixteen cm diameter Airlite plastic pots were partially filled with Tama slit loam soil and the soil saturated with water. Japonica and Indica rice seedlings a the 2.0 to 2.5 leaf stage were transplanted into 1/3 of the pots. Into another third of the pots were transplanted seedling or sprouted tubers of water plantain (Alisma trivale), Scripus (Scirpus paludosus), Cyperus (Cyperus esculentus), and arrowhead (Sagittaria spp.). The remaining pots were planted with barnyardgrass (Echinochloa crusgalli) seeds and sprouted tubes of water chestnut (Eleocharis spp.). These weeds all represent major rice weeds or genera of weeds important in rice. Three to four days after planting, the water level was raised to 3 cm (about 1200 ml/pot) and maintained a this level throughout the test. Chemical treatments were applied directly to the paddy water, within 24 hours of raising the water, after being formulated in a nonphytotoxic solvent. The pots were maintained in the greenhouse.

[9] = test system: Pyricularia oryzae; experiment: whole plant or invertebrate; format: in vivo; conditions: Pyricularia oryzae, 120 h, read-out: disease control rating, Ex. E, 100 PPM
[10] = test system: SCIRPUS; experiment: Test C rice paddy; format: in vivo, Scirpus paludosus; conditions: Bolboschoenus maritimus, 504 h, 21 days, read-out: plant response; for pest or weed control at 64 g/ha: 0064 G/HA; for pest or weed control at 125 g/ha: 0125 G/HA; for pest or weed control at 250 g/ha: 0250 G/HA; for pest or weed control at 500 g/ha: 0500 G/HA
In short: as §1

[11] = test system: Rhizoctonia solani; experiment: Example K cotton blight; format: in vivo; conditions: 336 h, 5 kg/ha, read-out: disease control rating, Ex. K
Description: […] Seeds and soil were then inoculated with a mixture of sand, cereal and mycelium of the fungus Rhizoctonia solani, causal agent of cotton blight, and incubated in a growth chamber at 30° C. for 14 days. Disease ratings were then made.

[12] = test system: Candida albicans ATCC 11651; experiment: In vivo systemic Candida infection in mice, primary assay; design: species or system Candida albicans; CF-1 female mice; conditions: Candida albicans, 150 mg/kg per day, read-out: % Survival
In short: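 CF-1 female mice (20 g, 10 per group) were infected IV with 0.2 ml of 1×10^7/ml C. albicans ATCC 11651, then given test compound subcutaneously at 50 or 150 mg/kg/day at 1 and 6 h post-infection and once daily for three more days. Survival was followed for 21 days against infected untreated mice; ≥70% protection at 14 days was scored active.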

[13] = test system: Aspergillus fumigatus ATCC 28214; experiment: In vitro antifungal MIC, microtiter broth dilution; conditions: Aspergillus fumigatus, ATCC28214, 24 h, read-out: MIC values, A. fumigatus, 30°, 24 hours

Compound | pest or weed control at 64 g/ha [1] | pest or weed control at 125 g/ha [1] | pest or weed control at 250 g/ha [1] | pest or weed control at 500 g/ha [1] | pest or weed control at 1000 g/ha [1] | pest or weed control at 100 ppm [2] | pest or weed control at 100 ppm [3] | pest or weed control at 100 ppm [4] | pest or weed control at 5000 g/ha [5] | pest or weed control at 64 g/ha [6] | pest or weed control at 125 g/ha [6] | pest or weed control at 250 g/ha [6] | pest or weed control at 500 g/ha [6] | pest or weed control at 1000 g/ha [6] | pest or weed control at 64 g/ha [7] | pest or weed control at 125 g/ha [7] | pest or weed control at 250 g/ha [7] | pest or weed control at 500 g/ha [7] | pest or weed control at 1000 g/ha [7] | plant response ([8]; 0064 G/HA) | further results
C=C(c1ccc(Cl)cc1)C(O)(Cn1cncn1)c1ccccc1F (stereo not shown) [Example 669] | 0% | 0% | 0% | 0% | 0% | 100% | 100% | 100% | 0% | 0% | 0% | 0% | 0% | 0% | 0% | 0% | 0% | 0% | 0% | 0 | plant response ([8]; 0125 G/HA): 0; plant response ([8]; 0250 G/HA): 0; plant response ([8]; 0500 G/HA): 60; plant response ([8]; 1000 G/HA): 80; pest or weed control at 100 ppm [9]: 96%; pest or weed control at 64 g/ha [10]: 0%; pest or weed control at 125 g/ha [10]: 0%; pest or weed control at 250 g/ha [10]: 0%; pest or weed control at 500 g/ha [10]: 0%; pest or weed control at 1000 g/ha [10]: 30%; pest or weed control at 5000 g/ha [11]: 0%; responders at 150 mg/kg ([12]; ATCC11651, 168 h, day 7): 100%; responders at 150 mg/kg ([12]; ATCC11651, 336 h, day 14): 100%; responders at 150 mg/kg ([12]; ATCC11651, 504 h, day 21): 100%; MIC [13]: 0.8 µg/mL (≈ 2.33 µM)
C=C(c1ccccc1Cl)C(O)(Cn1cncn1)c1ccc(F)cc1F (stereo not shown) [Example 35] | 0% | 0% | 40% | 40% | 60% | 100% | 100% | 100% | 0% | 0% | 0% | 40% | 50% | 95% | 0% | 0% | 0% | 0% | 20% | 0 | plant response ([8]; 0125 G/HA): 0; plant response ([8]; 0250 G/HA): 60; plant response ([8]; 0500 G/HA): 95; plant response ([8]; 1000 G/HA): 100; pest or weed control at 100 ppm [9]: 0%; pest or weed control at 64 g/ha [10]: 0%; pest or weed control at 125 g/ha [10]: 0%; pest or weed control at 250 g/ha [10]: 0%; pest or weed control at 500 g/ha [10]: 0%; pest or weed control at 1000 g/ha [10]: 50%; pest or weed control at 5000 g/ha [11]: 0%; responders at 150 mg/kg ([12]; ATCC11651, 168 h, day 7): 100%; responders at 150 mg/kg ([12]; ATCC11651, 336 h, day 14): 100%; responders at 150 mg/kg ([12]; ATCC11651, 504 h, day 21): 90%; MIC [13]: 0.1 µg/mL (≈ 0.276 µM)
